According to patent US5837817A, “Tumor necrosis factor receptor-II-associated protein kinase and methods for its use” (Research Development Foundation, priority 1996, dated 1998):

Legend:
[1] = biological target: T1, purified casein kinase 1 (Rattus norvegicus, UniProt Q06486); test: In vitro kinase assay with purified casein kinase 1, p80Δ5 as substrate; type: biochemical; conditions: 100 μM inhibitor; 10 units purified casein kinase 1; read-out: inhibition of purified casein kinase 1, measured by phosphorylation of p80Δ5
T1 construct: purchased New England Biolabs, Beverly, Mass
T1 sequence (Q06486 1-317 limits assumed): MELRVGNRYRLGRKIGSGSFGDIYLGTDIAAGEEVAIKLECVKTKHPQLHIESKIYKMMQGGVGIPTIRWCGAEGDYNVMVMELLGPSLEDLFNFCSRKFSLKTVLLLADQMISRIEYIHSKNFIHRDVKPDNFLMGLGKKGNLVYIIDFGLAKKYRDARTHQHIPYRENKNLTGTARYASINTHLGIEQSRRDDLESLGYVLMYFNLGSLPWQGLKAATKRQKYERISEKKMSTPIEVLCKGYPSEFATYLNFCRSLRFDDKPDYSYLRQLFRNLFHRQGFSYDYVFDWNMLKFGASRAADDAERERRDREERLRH
Experimental: (§1) An in vitro kinase assay with 10 units of purified casein kinase 1 (FIG. 11A) or p80TRAK precipitated from U937 cells with p80Δ5 (FIG. 8B) with p80Δ5 as a substrate was performed in the presence of the indicated concentration of casein kinase 1-7 dissolved in DMSO. The asterisk represents a control in which DMSO was added to a final concentration of 1.6%. Reaction mixtures were analyzed by 9% sodium dodecyl sulfate-polyacrylamide gel electrophoresis, and the dried gel was exposed to a PhosphorImager screen. The phosphorylation of p80Δ5 was quantitated by ImageQuant Software (Molecular Dynamics, Sunnyvale, Calif.) .
(§2) Standard kinase assays were carried out for 10 minutes at 37° C. in 50 μl containing 20 mM HEPES, pH 7.4, 10 mM MgCl2, 0.2 mM ATP, 0.2 mM NaF, 0.1 mM sodium orthovanadate, and 10 μCi [γ-^32 P]ATP or as described. Reactions were stopped with 15 μl SDS-sample buffer, boiled for 5 minutes and then subjected to SDS-PAGE. Protein bands were visualized by staining with Coomassie Blue and the dried gels were analyzed by a Phosphorimager (Molecular Dynamics, Sunnyvale, Calif.). Labeled protein bands were quantitated by using ImageQuant Software (Molecular Dynamics, Sunnyvale, Calif.). […]

[2] = tested on: p80TRAK; test: In vitro kinase assay with p80TRAK precipitated from U937 cells with p80Δ5, p80Δ5 as substrate; type: biochemical
Experimental: as §1, §2

[3] = tested on: p80 receptor phosphorylation, SW480T cells; conditions: pretreatment of SW480T cells; cited from earlier work

For `NCCNS(=O)(=O)c1ccc(Cl)c2ccncc12` [casein kinase 1-7], the inhibition at 100 µM [1] was 80%, the “effect on p80TRAK activity as measured by phosphorylation of p80Δ5 (in words)” value [2] was “inhibited” and the “inhibition of p80TRAK, measured by phosphorylation of p80Δ5” value ([2]; 100 μM inhibitor, p80TRAK precipitated from U937 cells) was 50%.

For `CN[C@@H]1C[C@H]2O[C@@](C)([C@@H]1OC)n1c3ccccc3c3c4c(c5c6ccccc6n2c5c31)C(=O)NC4` [staurosporine], the “extent of phosphorylation of the p80 receptor” value [3] is listed as “reduced”.
